Assay results as given in patent US20210380666A1, “SYNTHETIC HEME-CONTAINING MOLECULES AND THEIR USE” (priority 2017, published 2021).
Ends that are not written are not given here.

Assays:
[1] = test system: 100% CO bound hemoglobin (HbCO); experiment: CO scavenging from CO-bound hemoglobin, UV-visible spectra kinetics; format: biochemical; details: 100% HbCO mixed with reduced heme-peptide; spectral changes during reaction
[2] = CO binding of dithionite-reduced heme molecule by absorbance spectra; details: anaerobic, reduced with stoichiometric dithionite, CO saturated phosphate buffered saline added
From the text: A heme molecule bound to two peptide chains Ac-GCHGGR (SEQ ID NO: 2) in a “sandwich” (see FIG. 1), when prepared in anaerobic conditions, changes absorbance spectra (measured by Cary Spec device) with the introduction of stoichiometric amounts of dithionite.

For “QHGCGGCHG (N-acetyl; heme bound via two thioether bonds)”, the “kobs for CO scavenging, k1” value [1] was 0.1828 s⁻¹ and the “kobs for CO scavenging, k2” value [1] was 0.00968 s⁻¹.
With “Ac-GCHGGR: heme molecule bound to two peptide chains Ac-GCHGGR in a sandwich configuration (also: heme molecule bound to two peptide chains in a sandwich configuration)” the “CO binding ability (change of absorbance spectra)” value [2] was “indicating its CO binding ability”.
In the case of “RCHGGR: heme group bound to two non-contiguous peptides each of sequence RCHGGR (not fully specified (N-terminus); also: heme group bound to two non-contiguous peptide copies)”, the “kobs for CO scavenging, k1” value [1] is reported as 0.02576 s⁻¹ and the “kobs for CO scavenging, k2” value [1] is reported as 0.01241 s⁻¹.
For “microperoxidase-11 [MP11, reference compound]”, the “kobs for CO scavenging, k1” value [1] was 0.0215 s⁻¹.
